According to patent publication US10806794B2, “Protease inhibitors having enhanced features” (priority 2008, dated 2020):

Experiments:
CEM-SS cells = system: CEM-SS cells
Method: To evaluate whether conjugated protease inhibitors retain the ability to protect against HIV-1 infection, CEM-SS cells infected with the RF strain of HIV-1 were treated with test compounds for six days, and then cell viability was monitored using the tetrazolium dye XTT. […] A value for Therapeutic Index (TI) was calculated as TC50/EC50.

CYP2D6 = CYP2D6 (Homo sapiens (Human), UniProt P10635); assay: Metabolic stability in CYP2D6-expressing Bactosomes; format: in vitro ADME; conditions: 5 μM
Method: (§1) Compounds were evaluated for their propensity to act as substrates of individual human cytochrome P450 enzymes using a bacterial membrane preparation co-expressing human NADPH-cytochrome P450 reductase with either human CYP3A4 or CYP2D6 (Bactosomes™ Cypex, Ltd., Dundee, UK). In vitro metabolism studies using Bactosomes™ expressing individual human CYP isoforms monitor the extent to which a test compound is metabolized by a single CYP450 enzyme and allow identification of the CYP isoforms that may be responsible for the metabolism of a test compound. Timecourse analyses of test molecules (5 μM) with CYP2D6- or CYP3A4-expressing Bactosomes™ (100 pmol/mL) are performed in buffer (0.1 M phosphate, pH 7.4) in a final reaction volume of 25 μL. […] Reactions are terminated by the addition of methanol (50 μL) containing internal standard at 0, 5, 15, 30, and 45 minutes.

CYP3A4 = CYP3A4 (Homo sapiens (Human), UniProt P08684); assay: Metabolic stability in CYP3A4-expressing Bactosomes; format: in vitro ADME; conditions: 5 μM
Method: as §1

[1] = Metabolic stability in cryopreserved human hepatocytes; conditions: human, cryopreserved human hepatocytes, CLint ± SEM, human hepatocytes, 3 uM, incubated up to one hour
Outline: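 Test compounds at 0.1 μM or 3 μM incubated with cryopreserved human hepatocytes at 0.5×10^6 viable cells/mL. Sampling up to four hours (0.1 μM) or one or two hours (3 μM), methanol quench, then remaining parent measured by cassette LC-MS/MS.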

[2] = Microsomal protein binding by equilibrium dialysis; format: in vitro ADME; conditions: human liver microsomes, read-out: Microsomal Protein Binding Fu ± SD
Outline: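 Compound at 3 μM final in buffer with or without human liver microsomes, dialysed to equilibrium at 37 °C. Both sides quantified by LC-MS/MS to derive fraction unbound (Fu).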

[3] = Plasma protein binding by equilibrium dialysis, mouse plasma; format: in vitro ADME; conditions: read-out: Mouse Plasma Protein Binding Fu ± SD
Method: (§2) In assays to estimate binding of test compounds to plasma proteins, test compound solutions (5 μM) are prepared in buffer and species-specific plasma (final DMSO concentration 0.5%). The plasma-containing solution is added to one side of the membrane of an equilibrium dialysis system, and the plasma-free is added to the other side. Dialysis was allowed to reach equilibrium by incubation for two hours at 37° C. The concentration of compound on both sides of the membrane was measured using LC-MS/MS.

[4] = Plasma protein binding by equilibrium dialysis, monkey plasma; format: in vitro ADME; conditions: read-out: Monkey Plasma Protein Binding Fu ± SD
Method: as §2

[5] = Metabolic stability in Sprague-Dawley rat hepatocytes; format: in vitro ADME; conditions: for hepatocyte CLint at 0.1 μM: read-out: Clint ± SEM
[6] = Plasma protein binding by equilibrium dialysis, rat plasma; format: in vitro ADME; conditions: read-out: Rat Plasma Protein Binding Fu ± SD
Method: as §2

[7] = Metabolic stability in beagle dog hepatocytes; format: in vitro ADME; conditions: for hepatocyte CLint at 0.1 μM: read-out: Clint ± SEM
[8] = Metabolic stability in cynomolgus monkey hepatocytes; format: in vitro ADME; conditions: cynomolgus monkey

CYP3A4, sequence (P08684 whole entry): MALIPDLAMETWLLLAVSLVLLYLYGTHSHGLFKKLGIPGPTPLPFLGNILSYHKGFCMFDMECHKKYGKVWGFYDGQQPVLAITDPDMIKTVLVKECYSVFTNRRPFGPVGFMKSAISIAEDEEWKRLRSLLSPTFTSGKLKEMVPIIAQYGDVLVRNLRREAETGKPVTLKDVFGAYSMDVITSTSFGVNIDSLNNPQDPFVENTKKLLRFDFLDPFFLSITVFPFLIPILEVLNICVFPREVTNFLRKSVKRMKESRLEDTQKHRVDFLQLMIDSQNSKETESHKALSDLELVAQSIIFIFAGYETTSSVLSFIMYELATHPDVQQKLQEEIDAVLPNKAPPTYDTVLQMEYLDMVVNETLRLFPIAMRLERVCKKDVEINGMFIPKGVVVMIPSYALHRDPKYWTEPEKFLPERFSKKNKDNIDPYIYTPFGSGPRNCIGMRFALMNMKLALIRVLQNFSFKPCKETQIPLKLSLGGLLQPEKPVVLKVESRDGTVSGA
CYP2D6, sequence (P10635 whole entry, canonical isoform): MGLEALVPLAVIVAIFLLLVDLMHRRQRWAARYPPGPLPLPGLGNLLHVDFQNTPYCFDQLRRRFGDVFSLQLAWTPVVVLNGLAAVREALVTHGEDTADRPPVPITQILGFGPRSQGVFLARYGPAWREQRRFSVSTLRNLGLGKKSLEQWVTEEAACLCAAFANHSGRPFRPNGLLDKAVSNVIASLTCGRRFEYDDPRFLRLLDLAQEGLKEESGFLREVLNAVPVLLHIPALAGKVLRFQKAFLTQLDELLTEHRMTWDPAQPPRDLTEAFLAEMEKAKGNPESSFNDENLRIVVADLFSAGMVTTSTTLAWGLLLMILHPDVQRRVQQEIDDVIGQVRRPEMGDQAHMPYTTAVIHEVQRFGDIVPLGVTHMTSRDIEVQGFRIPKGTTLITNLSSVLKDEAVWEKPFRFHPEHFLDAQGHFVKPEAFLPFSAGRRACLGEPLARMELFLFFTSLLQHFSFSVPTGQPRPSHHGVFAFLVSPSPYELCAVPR

Compound	CEM-SS TC50 ± SD (CEM-SS cells) [µM]	2D6 t1/2 ± SEM (CYP2D6) [h]	3A4 t1/2 ± SEM (CYP3A4) [h]	fraction unbound at 3 μM [2]	fraction unbound at 2 h, 5 μM [3]	fraction unbound at 2 h, 5 μM [4]	half-life at 0.1 μM [5] [h]	hepatocyte CLint at 0.1 μM [5] [µL/min/1e6 cells]	fraction unbound at 2 h, 5 μM [6]	half-life at 0.1 μM [7] [h]	hepatocyte CLint at 0.1 μM [7] [µL/min/1e6 cells]	further results
COCCOCCOCCOCCOCCOCCOCCOC(=O)NC(C(=O)NC(Cc1ccccc1)C(O)CN(Cc1ccc(-c2ccccn2)cc1)NC(=O)C(NC(=O)OC)C(C)(C)C)C(C)(C)C (stereo not shown) [mono-mPEG7-Atazanavir]	133.8 ± 24.5	–	–	–	–	–	–	–	–	–	–	–
COCCOCCOCCOCCOCCNc1ccc(S(=O)(=O)N(CC(C)C)CC(O)[C@H](Cc2ccccc2)NC(=O)O[C@H]2CO[C@H]3OCC[C@H]32)cc1 (stereo partly shown) [mPEG5-N-Darunavir]	–	0.827 ± 0.0438	0.623 ± 0.0797	–	–	–	–	–	–	–	–	–
COCCOC(=O)NC(C(=O)NC(Cc1ccccc1)C(O)CN(Cc1ccc(-c2ccccn2)cc1)NC(=O)C(NC(=O)OC)C(C)(C)C)C(C)(C)C (stereo not shown) [mono-mPEG1-Atazanavir]	49.1 ± 6.4	–	–	–	–	–	–	–	–	–	–	–
COCCOCCOCCOCCOCCOCCOCCNc1ccc(S(=O)(=O)N(CC(C)C)CC(O)[C@H](Cc2ccccc2)NC(=O)O[C@H]2CO[C@H]3OCC[C@H]32)cc1 (stereo partly shown) [mPEG7-N-Darunavir]	–	0.485 ± 0.0325	0.232 ± 0.032	–	–	–	–	–	–	–	–	–
COC(=O)N[C@H](C(=O)N[C@@H](Cc1ccccc1)[C@@H](O)CN(Cc1ccc(-c2ccccn2)cc1)NC(=O)[C@@H](NC(=O)OC)C(C)(C)C)C(C)(C)C [Atazanavir, reference compound]	–	–	–	0.846 ± 0.0308	0.0574 ± 0.00286	0.201 ± 0.0183	0.228	101 ± 0.00802	0.079 ± 0.00684	12.6	1.83 ± 0.000561	hepatocyte CLint at 3 μM [1]: 5.15 ± 1.13 µL/min/1e6 cells
COCCOCCOCCOC(=O)NC(C(=O)NC(Cc1ccccc1)C(O)CN(Cc1ccc(-c2ccccn2)cc1)NC(=O)C(NC(=O)OC)C(C)(C)C)C(C)(C)C (stereo not shown) [mono-mPEG3-Atazanavir, {1-[N′-[2-Hydroxy-3-(2-{2-[2-(2-methoxy-ethoxy)-ethoxy]-ethoxycarbonylamino}-3,3-dimethyl-butyrylamino)-4-phenyl-butyl]-N′-(4-pyridin-2-yl-benzyl)-hydrazinocarbonyl]-2,2-dimethyl-propyl}-carbamic Acid Methyl Ester]	–	–	–	0.852 ± 0.0495	0.159 ± 0.0161	0.204 ± 0.196	1.95	11.9 ± 0.00223	0.138 ± 0.0104	1.43	16.1 ± 0.000914	half-life at 0.1 μM [8]: 1.66 h; hepatocyte CLint at 0.1 μM ([8]; read-out: Clint ± SEM): 13.9 ± 0.904 µL/min/1e6 cells
